# Results taken from publication PMC11919252 (eLife, 2025).
# Entries after “also recorded” stand apart in the source; their conditions may differ. Structures can show the parent of a compound that is named as a salt.
# Columns and labels:
# [1] = test system: WT and Tac1::Calca DKO mice; experiment: AITC-evoked licking; assay type: in vivo, mouse; conditions: 1% AITC in saline, 20 µl intraplantar; 5 min; WT n=12, DKO n=12
# Experimental: (§1) 0.3% capsaicin in 80% saline / 10% Tween-80 /10% ethanol or 1% AITC in saline was injected into the plantar surface of the hind paw. The injected volume for both was 20 µl. Mice were video-taped for 5 min. A blinded observer scored the amount of time in seconds the mouse spent licking the injected paw in a 5-min time period.
# [2] = test system: hindpaw of WT and DKO mice; experiment: Hindpaw swelling (edema), plethysmometer; assay type: in vivo, mouse; conditions: for Swelling of the hindpaw, DKO versus WT: observation after injection of CFA, PGE2, AITC or capsaicin
# Experimental: (§2) Mice were anesthetized using isoflurane. 200 μl of Evans Blue dye was injected into the mouse’s tail vein. 15 mins later, one hindpaw was injected with an algogen. After a further 30 min, the volume of each paw was measured by displacement using a plethysmometer (Ugo Basile). Both paws were then cut at the ankle and placed in tubes in the oven at 55 °C for 24 hr to dry. 1 ml of formamide was then added to each paw and incubated for 4-6 days at 55 °C to extract the dye from the paw tissue. 50 μl samples of dye-infused formamide from each paw were then dispensed to a 96-well plate in duplicate, along with a range of Evans blue dilutions in formamide to generate a standard curve. The optical density of each sample was then measured using a plate-reader, and the concentration of Evans Blue per paw sample interpolated from the standard curve to generate an index of extravasation in that paw.
# [3] = test system: hindpaw of WT and DKO mice; experiment: Plasma extravasation, Evans blue assay; assay type: in vivo, mouse; conditions: for Paw swelling and plasma extravasation (images): injected (left) compared to uninjected (right) paw, WT and DKO mice
# Experimental: as §2
# [4] = test system: CGRP receptor (Calcrl and Ramp1) in CGRP-sniffer HEK293 cells co-cultured with DRG neurons; experiment: Co-culture of DRG neurons and CGRP-sniffer cells (CGRP release); assay type: cell-based, mouse
# [5] = test system: WT and Tac1::Calca DKO mice; experiment: Conditioned taste aversion; assay type: in vivo, mouse; conditions: LiCl 200 mg/kg; saccharin 15 mM; WT n=7, DKO n=6
# Experimental: Mice were single-housed and habituated for 3 days to drink from two glass bottles with stainless-steel ball-bearing spouts. Mice then received 3 days of training, where they were water-deprived for 22 hr followed by 30 min exposure to a single water-containing bottle, then 90 min exposure to both bottles. On the conditioning day, after 22 hr of water deprivation, mice were exposed to a single bottle containing saccharin water (15 mM) for 45 min. Mice were then injected with lithium chloride (200 mg/kg) or PBS, and then given ordinary water for 75 min. The animals were then water deprived for a further 22 hr. On the test day, mice were simultaneously exposed to a bottle containing water and a bottle containing saccharin for 45 min. The volume of each solution consumed was measured by weighing the bottles before and after. To calculate the saccharin preference index of each animal, the volume of saccharin consumed was divided by the total of fluid consumed, with a value less than 0.5 indicating the development of an aversion to saccharin.
# [6] = test system: WT and Tac1::Calca DKO mice; experiment: Inflammatory heat hypersensitivity (Hargreaves); assay type: in vivo, mouse; conditions: PGE2 20 μl, 500 nM intraplantar; up to 120 min; WT n=10, DKO n=10
# Experimental: The radiant heat stimulus was aimed for the centre of the plantar region of the mouse’s hind paw. The active intensity of the low stimulus was 40 intensity units, and of the high stimulus 55. The response latency was recorded for five trials with 10 min breaks in between each trial.
# (§3) CFA and PGE2 was purchased from Sigma. 20 μl of CFA was injected into the heel of the hind paw. PGE2 (20 μl, 500 nM) was injected into the plantar surface of the hindpaw, and behavior was assessed over the same time-frame that produces in vivo sensitization of nociceptor responses (up to 120 min). Inflammation-induced hypersensitivity was measured using the Hargreaves and the von Frey, as described above.
# [7] = test system: WT and Tac1::Calca DKO mice; experiment: Inflammatory mechanical hypersensitivity (von Frey); assay type: in vivo, mouse; conditions: PGE2 20 μl, 500 nM intraplantar; up to 120 min; WT n=6, DKO n=6
# Experimental: Punctate mechanical sensitivity was measured using the up-down method of Chaplan to obtain a 50% withdrawal threshold ([Chaplan et al., 1994]). Mice were habituated on a mesh wire stand for 1 hr. A 0.16 g Von Frey hair was applied to the plantar region of the paw for 2 s. A response was recorded when the mouse swiftly lifted its paw in response to the stimulus. […] To calculate the 50% withdrawal threshold, five responses surrounding the 50% threshold were obtained after the first change in response. The pattern of responses was used to calculate the 50% threshold = (10[χ+κδ]/10,000), where χ is the log of the final von Frey filament used, κ=tabular value for the pattern of responses and δ the mean difference between filaments used in log units. The log of the 50% threshold was used to calculate summary and test statistics.
# as §3
# [8] = test system: WT and Tac1::Calca DKO mice; conditions: 0.6% acetic acid, intraperitoneal, 10 μl/g; 15 min from 5 min after injection; WT n=9, DKO n=7
# Experimental: Mice were habituated on a plexiglass stand for 1 hr. 0.6% of acetic acid was injected intraperitoneally at a dose of 10 μl/g weight of the animal. Mice were videotaped for 20 min. The number of writhes was quantified post-hoc by a blinded observer during a 15-min interval between 5 and 20 min after injection.
# [9] = test system: Substance P receptor (NKR1) in Substance P-sniffer HEK293 cells co-cultured with DRG neurons; experiment: Co-culture of DRG neurons and Substance P-sniffer cells (Substance P release); assay type: cell-based, mouse; conditions: capsaicin 10 μM
# [10] = test system: WT and Tac1::Calca DKO mice; experiment: Capsaicin-evoked licking; assay type: in vivo, mouse; conditions: 0.3% capsaicin, 20 µl intraplantar, 5 min
# Experimental: as §1
# [11] = test system: dorsal horn of WT and DKO mice; experiment: Capsaicin-evoked dorsal horn Fos staining; assay type: in vivo, mouse; conditions: capsaicin 0.3% hindpaw; WT n=5, DKO n=4
# Experimental: […]. After 1 week, mice were habituated then the stimulation was performed. For capsaicin-evoked dorsal horn Fos, capsaicin (0.3%) was injected into the right hindpaw of mice in chambers on a plexiglass stand. For Fos elicited by dynamic allodynia stimulation, mice that received a spared nerve injury procedure 3 weeks prior were stimulated with a paint brush while housed on a wire mesh stand (3x10 min stimulation period, with 1-min rest every 10 min). Note that for SNI experiments, the CTB was injected into the contralateral paw, because severing two branches of the sciatic nerve would have prevented efficient CTB transit in the ipsilateral paw. The mice were perfused as above and spinal cords were harvested 75–120 min after stimulation. The sections were incubated in a blocking buffer (5% goat serum; 0.1% Triton X-100; PBS) for 3 hr at room temperature on a shaker. The sections were incubated in 1:1000 rabbit anti Fos primary antibody (Cell Signaling Technology, Phospho-c-Fos (Ser32) (D82C12) XP Rabbit mAb, #5348) at room temperature overnight. […] This ensured Fos activity was measured only in those sections strongly innervated by the hindpaw. The number of Fos-positive nuclei in the dorsal horn were quantified in ImageJ/FIJI software (National Institute of Health) by a blinded observer using a semi-automated procedure. […]
# [12] = test system: WT and Tac1::Calca DKO mice; experiment: Chloroquine-induced itch; assay type: in vivo, mouse; conditions: chloroquine 20 μl of 25 μM intradermal, nape of neck; 15 min; WT n=8, DKO n=11
# Experimental: Hair from the nape of the mouse’s neck was removed 2–3 days prior to behavioral experiments using VEET hair removal cream and the area thoroughly washed and moisturizing cream applied. Mice were habituated to transparent acrylic chambers (10cm x 10cm x 13 cm) 30 min prior to injection. Post habituation, a blinded investigator injected 20 μl of 25 μM Chloroquine diphosphate salt (Sigma-Aldrich: C6628) solution in 0.9% saline intradermally into the nape of the neck using a 31 G insulin syringe. Videos were quantified by a separate blinded investigator with a scratching bout counted each time the mouse attended to the injected area with the hind paw after the paw was removed from the floor or mouth.
smiles,measurement,setting,value
"C=CCN=C=S [AITC, allyl isothiocyanate]",Licking behavior after AITC,[1],evoked similar licking behavior to capsaicin that was unaffected by peptide deletion
same,"Swelling of the hindpaw, DKO versus WT",[2],provoked swelling of the hindpaw of DKO mice to a similar extent as WT mice
same,Paw swelling and plasma extravasation (images),[3],both WT and DKO mice show paw swelling and plasma extravasation
CC(C)C[C@H](NC(=O)CNC(=O)[C@H](C)NC(=O)[C@H](CC(C)C)NC(=O)[C@H](CCCNC(=N)N)NC(=O)[C@H](Cc1c[nH]cn1)NC(=O)[C@@H](NC(=O)[C@@H](NC(=O)[C@@H]1CSSC[C@H](NC(=O)[C@@H](N)CO)C(=O)N[C@@H](CC(N)=O)C(=O)N[C@@H]([C@@H](C)O)C(=O)N[C@@H](C)C(=O)N[C@@H]([C@@H](C)O)C(=O)N1)C(C)C)[C@@H](C)O)C(=O)N[C@@H](CC(C)C)C(=O)N[C@@H](CO)C(=O)N[C@@H](CCCNC(=N)N)C(=O)N[C@@H](CO)C(=O)NCC(=O)NCC(=O)N[C@H](C(=O)N[C@H](C(=O)N[C@@H](CCCCN)C(=O)N[C@@H](CC(=O)O)C(=O)N[C@@H](CC(N)=O)C(=O)N[C@@H](Cc1ccccc1)C(=O)N[C@H](C(=O)N1CCC[C@H]1C(=O)N[C@H](C(=O)N[C@@H](CC(N)=O)C(=O)N[C@H](C(=O)NCC(=O)N[C@@H](CO)C(=O)N[C@@H](CCC(=O)O)C(=O)N[C@@H](C)C(=O)N[C@@H](Cc1ccccc1)C(N)=O)C(C)C)[C@@H](C)O)C(C)C)C(C)C)C(C)C [CGRPα],CGRP-sniffer activation by exogenous CGRPα,"[4]; CGRPα saturating concentration 100–1000 nM, co-culture with WT and DKO DRG, n=18 wells per genotype",activates CGRP-sniffers in both conditions
"[Cl-].[Li+] [LiCl, lithium chloride]",Conditioned taste aversion to saccharin,[5],pronounced aversion to the usually-preferred saccharin; also recorded: strong and indistinguishable conditioned taste aversion in both WT and DKO mice
"CCCCC[C@H](O)/C=C/[C@H]1[C@H](O)CC(=O)[C@@H]1C/C=C\CCCC(=O)O [PGE2, Prostaglandin E2]","Heat hypersensitivity, Hargreaves",[6],short-lasting heat and mechanical hypersensitivity to a similar extent in both WT and DKO mice
same,"Mechanical hypersensitivity, von Frey",[7],short-lasting heat and mechanical hypersensitivity to a similar extent in both WT and DKO mice
same,"Swelling of the hindpaw, DKO versus WT",[2],provoked swelling of the hindpaw of DKO mice to a similar extent as WT mice
CC(=O)O [acetic acid],Writhing behavior,[8],comparable writhing behavior in both WT and DKO mice
COc1cc(CNC(=O)CCCC/C=C/C(C)C)ccc1O [capsaicin],Substance P-sniffer GCaMP response evoked by capsaicin,[9]; DKO DRG neurons,no Substance P-sniffer cell responses
same,Substance P-sniffer GCaMP6s fluorescence,"[9]; WT versus DKO DRG co-culture, n=12 wells from 2 mice per genotype","increase in Substance P-sniffer GCaMP6s fluorescence when cultured with DRGs from WT, but not DKO, mice"
same,Substance P-sniffer GCaMP response evoked by capsaicin,[9]; control (WT) DRG neurons,robust GCaMP responses
same,CGRP-sniffer activity evoked by DKO neurons,"[4]; capsaicin application, DKO DRG neurons",markedly reduced activity
same,CGRP-sniffer calcium response evoked by capsaicin,"[4]; capsaicin application, WT DRG neurons",strong increases in calcium
same,CGRP-sniffer GCaMP6s fluorescence,"[4]; capsaicin, WT versus DKO DRG co-culture, n=18 wells from 3 mice per genotype","increase in CGRP-sniffer GCaMP6s fluorescence when cultured with DRGs from WT, but not DKO, mice"
same,Licking responses after capsaicin,"[10]; WT n=9, DKO n=8",evoked coping-like licking responses in both genotypes
same,"Licking, difference WT versus DKO after capsaicin",[10]; unpaired t-test,differences did not reach statistical significance
same,Capsaicin-evoked dorsal horn Fos expression,[11],No differences in dorsal horn Fos expression were observed
same,"Paw swelling by volume, WT versus DKO","[2]; capsaicin injection, 30 min, normalized to uninjected paw, WT n=9, DKO n=7",no appreciable differences in capsaicin-induced swelling between WT and DKO mice
same,"Swelling of the hindpaw, DKO versus WT",[2],provoked swelling of the hindpaw of DKO mice to a similar extent as WT mice
same,Plasma extravasation,"[3]; capsaicin injection, Evans blue optical density normalized to uninjected paw, WT n=9, DKO n=7",plasma extravasation was intact in DKO mice
same,Paw swelling and plasma extravasation (images),[3],both WT and DKO mice show paw swelling and plasma extravasation
"CCN(CC)CCCC(C)Nc1ccnc2cc(Cl)ccc12 (centres unmarked) [chloroquine, Chloroquine diphosphate salt]",Scratching,[12],DKO mice scratched robustly
